Measured values as given in patent US6627641B1, “Antimalarial naphthylisoquinoline alkaloids and pharmaceutical compositions and medical uses thereof” (The United States of America as represented by the …, priority 1994, dated 2003).
Converted amounts (≈) assume the structure as drawn.

Columns and labels:
[1] = system: P. falciparum (NF54 strain, clone A149); test: In vitro 3H-hypoxanthine incorporation test with P. falciparum NF 54; type: cell-based, Plasmodium falciparum; conditions: NF 54, clone A149; six repeats; max. concentration 50 or 5 μg/ml
Procedure: Continuous in vitro cultures of asexual erythrocytic stages of P. falciparum (strain NF 54/64, clone A1A9) were maintained following essentially the method of Trager and Jensen (Science, 193, 673-675, 1976) at 37° C. under an atmosphere of 5% CO2, 5% O2, and 90% N2. The host cells were human erythrocytes (A or O Rh+). The culture medium was RPMI 1640 (Gibco), containing HEPES (BDH; 4.57 gL^−1), glucose (Sigma; 1.54 gL^−1), 5% NaHCO3 (Merck; 34.78 mlL^−1), and gentamycin (Merck; 8.70 mlL^−1) supplemented with 10% human plasma (A Rh+). Parasites were subinoculated every 3-4 days with initial conditions of 1% parasitemia and 1% hematocrit.
(§1) In vitro testing with P. falciparum was as follows. Each compound was dissolved in DMSO at a concentration of 20 mg ml^−1. These solutions were further diluted with physiological saline to obtain a stock solution of 500 μg ml^−1. Each test substance was applied in a series of seven, 4-fold dilutions (maximum concentrations 50 or 5 μg ml^−1). Each compound was tested in 6-fold repeats. Chloroquine was tested similarly, as a positive control.
(§2) The test protocol was performed in vitro, based upon the method of Desjardins, et al. (Antimicrobial Agents Chemother., 16, 710-715, 1979). The parasites (200 μl of a suspension with initial parasitemia of 0.5% and hematocrit of 1.5%) were incubated for 24 h in microtitre plates (Falcon MicroTest III) in hypoxanthine-free medium in the presence of 25 μl of test solution. The plates contained a negative control (6 wells with non-parasitized RBC's, no drug) and a positive control (6 wells with parasitized RBC's no drug). Thereafter, 25 μl of ^3H-hypoxanthine solution (Amersham) was added (0.5 μCi well ^−1), and the parasites were incubated for a further period of 18 h. Each well was harvested with a Cell Harvester (Nunc). The filter papers were dried for 2 h at 52° C., and their radioactivity was measured by liquid scintillation counting in Optiscint HiSafe (LKB Pharmacia).
(§3) The mean results, obtained as counts per min (cpm), were expressed as percentages of incorporation or growth inhibition. The sigmoid dose-response curve was then linearized by probit analysis with the aid of software provided by IWONL (Gent), adapted by G. Timperman and used to derive the IC50 values.

P. berghei (Anka) = test: In vitro 3H-hypoxanthine incorporation test with P. berghei (Anka); type: cell-based, Plasmodium berghei; conditions: Anka strain
Procedure: as §1, §2, §3
For experiments with P. berghei (Anka strain), the parasites were maintained, and the in vitro tests performed essentially the same as above, except for the following modification. In the case of tests using P. berghei, the parasites were incubated in the same conditions as for P. falciparum (above) except that the incubations were started immediately in the presence of the ^3H-hypoxanthine and for 24 hour total duration (i.e., no delay in the addition of the ^3H-hypoxanthine). As before, the incorporated radioactivity was used as a-measure for parasite growth.

[2] = system: P. falciparum (K1 strain); test: In vitro 3H-hypoxanthine incorporation test with chloroquine-resistant P. falciparum K1; type: cell-based, Plasmodium falciparum
Procedure: Selected compounds were also tested against drug-resistant parasites. The method was the same as above except for the following modifications. The parasite used was the chloroquine-resistant strain, K1, maintained essentially according to Desjardins, et al. (supra, 1979). The culture medium was RPMI-1640 containing TES (Sigma; 7.64 gL^−1), glucose (BDH; 1.67 gL^−1), NaHCO3 (BDH; 1.94 gL^−1), and gentamycin (Nicholas; 30 mgL^−1) supplemented with 10% human serum (A RH+). Parasites were subinoculated every 3-4 days with initial conditions of 1% parasitemia and 2.5% hematocrit. For the testing, small aliquots of test material were dissolved in 20 μl EtOH and RPMI 1640 to give solutions of 1 or 10 mg ml^−1. Each was applied in a series of twelve, […] dilutions (final […] ranging from 50 to 1.19×10^−3 μg ml^−1). Chloroquine diphosphate (Sigma) was used in the same experiments as a reference and also in twelve, 4-fold dilutions (final concentrations 2×10^−5-1.19×10^−12M). Each compound was tested in duplicate.
Testing was performed in vitro based upon the method of Desjardins, et al (supra, 1979), as modified by O'Neill, et al. (Planta Med., 51, 394-399, 1985) and Ekong, et al. (Biochem. Pharmacol., 40, 297-301, 1990). The parasites (50 μl initial parasitemia of 1%, hematocrit of 5%) were incubated for 24 h in microtitre plates (Nunc) in normal (not hypoxanthine-depleted) medium in the presence of 50 μl of test solution. Controls were set up in each test by preparing 12-24 wells with non-parasitized RBC's and no test solution and 12-24 wells with parasitized RBC's and no test compound. Thereafter, 5 μl all of ^3H-hypoxanthine (Amersham) were added (0.2 μCi well ^−1), and the parasites incubated for a further period of 18 h. Each well was harvested with a Cell Harvester (Skatron). Glass fibre filters were dried briefly. Radioactivity was measured by liquid scintillation counting in Ecoscint (National Diagnostics).
The results obtained as cpm were expressed as percentages of incorporation of growth inhibition. The dose-related part of the sigmoidal curves obtained were linearized by regression analysis with the aid of software developed by S. Grant (I.SHTM) and used to calculate the IC50 values.

[3] = system: Plasmodium berghei (Anka strain); test: In vivo antimalarial test in OF1 mice inoculated with P. berghei; conditions: for Parasitemia (%) at day 4 / Parasitemia (%) at day 10: average (95% CI)
Procedure: Outbred, female, six-week-old OF1 mice (six mice per group treated and nontreated [control]) were inoculated intraperitoneally on day 0 with 10^6 P. berghei (Anka strain) blood forms. Two hours later, they were administered orally 50 mg/kg of dioncopeltine A or dioncophylline B. A second, third, and fourth treatment (50 mg/kg each) was given after 24, 48 and 72 h, respectively (days 1, 2, and 3). […] The parasitemia (%) in the control (not drug-treated) group was 3.50 (range 3.02-3.97; N=6). In the dioncopeltine A treated group, the parasitemia was 0.03 (range 0.01-0.06; N=6); in the dioncophylline B treated group, the parasitemia was […] (range 0.66-3.07; N=6).
The in vivo antimalarial testing was performed as described above, except that more doses and different treatment schedules were employed, as described in Tables 3 and 4.

[4] = 50 mg/kg/d oral, 1 day of treatment
[5] = 50 mg/kg/d oral, 2 days of treatment
[6] = 50 mg/kg/d oral, 3 days of treatment
[7] = 50 mg/kg/d oral, 4 days of treatment
[8] = oral treatment with 4×50 mg/kg/d

Compound: 6-O-demethyl-8-O-methyl-7-epi-ancistrobrevine C
- IC50 P. falciparum NF54 strain [1]: 10.326 µg/mL

Compound: 6-deoxy-N-methyl-ancistrocladine
- IC50 P. falciparum NF54 strain [1]: 10.079 µg/mL

Compound: 7-epi-dioncophylline A
- IC50 P. falciparum NF54 strain [1]: 0.190 µg/mL

Compound: COc1cccc2c(-c3ccc4c(c3O)C(C)N(C)C(C)C4)c(C)cc(OC)c12 (single isomer, unassigned) [N-methyl-dioncophylline A (atropisomers)]
- IC50 P. falciparum NF54 strain [1]: 17.411 µg/mL (≈ 44.5 µM)

Compound: COc1c(-c2c(C)cc(OC)c3c(O)cccc23)ccc2c1C(C)NC(C)C2 (stereo not drawn) [8-O-methyl-5′-O-demethyl-7-epi-dioncophylline A]
- IC50 P. falciparum NF54 strain [1]: 1.584 µg/mL (≈ 4.2 µM)
- IC50 P. berghei, Anka (P. berghei (Anka)): 4.580 µg/mL (≈ 12.1 µM)

Compound: COc1c(C)nc(C)c2c(OC)c(-c3c(C)cc(OC)c4c(OC)cccc34)ccc12 [(±)-dioncophyllacine A]
- IC50 P. falciparum NF54 strain [1]: 17.571 µg/mL (≈ 42.1 µM)

Compound: COc1cc2c(c(OC)c1-c1ccc(OC)c3c(OC)cc(C)cc13)[C@@H](C)N(C)[C@@H](C)C2 [Ancistrobrevine A]
- IC50 P. falciparum NF54 strain [1]: 19.336 µg/mL (≈ 44.4 µM)

Compound: COc1cc(O)c(-c2c(C)cc(OC)c3c(OC)cccc23)c2c1[C@H](C)N[C@@H](C)C2 [Ancistrocladine]
- IC50 P. falciparum NF54 strain [1]: 18.353 µg/mL (≈ 45 µM)
- IC50 P. falciparum, K1 strain [2]: 25.350 µg/mL (≈ 62.2 µM)
- IC50 P. berghei, Anka (P. berghei (Anka)): >50 µg/mL

Compound: COc1cccc2c(-c3ccc4c(c3O)[C@@H](C)N[C@H](C)C4)c(C)cc(OC)c12 [Dioncophylline A]
- IC50 P. falciparum NF54 strain [1]: 1.443 µg/mL (≈ 3.82 µM)
- IC50 P. falciparum, K1 strain [2]: 0.860 µg/mL (≈ 2.28 µM)
- IC50 P. berghei, Anka (P. berghei (Anka)): 0.961 µg/mL (≈ 2.55 µM)

Compound: COc1cc(C)c(-c2ccc(O)c3c2C[C@@H](C)N[C@@H]3C)c2cccc(O)c12 [Dioncophylline C]
- IC50 P. falciparum NF54 strain [1]: 0.005 µg/mL (≈ 0.0138 µM)
- IC50 P. berghei, Anka (P. berghei (Anka)): 0.015 µg/mL (≈ 0.0413 µM)
- Parasitemia (%) at day 4 ([3]; 3.125 mg/kg/d oral, days 0-3): 5.36 (3.96 − 6.75) %
- Parasitemia (%) at day 4 ([3]; 6.25 mg/kg/d oral, days 0-3): 4.42 (2.77 − 6.06) %
- Parasitemia (%) at day 4 ([3]; 12.5 mg/kg/d oral, days 0-3): 3.36 (2.35 − 4.37) %
- Parasitemia (%) at day 10 ([3]; 12.5 mg/kg/d oral, days 0-3): 26.91 (0.00 − 60.36) %
- Parasitemia (%) at day 4 ([3]; 25 mg/kg/d oral, days 0-3): 0.62 (0.00 − 1.34) %
- Parasitemia (%) at day 10 ([3]; 25 mg/kg/d oral, days 0-3): 29.82 (11.20 − 48.43) %
- Parasitemia (%) at day 4 [3, 4]: 0.02 (0.00 − 0.05) %
- Parasitemia (%) at day 10 [3, 4]: 7.87 (0.00 − 23.92) %
- Parasitemia (%) at day 4 [3, 5]: 0.01 (0.00 − 0.02) %
- Parasitemia (%) at day 10 [3, 5]: 0.41 (0.00 − 1.38) %
- Number of OF1 negative (neg) at day 10 ([3]; 50 mg/kg/d oral, 2 days of treatment, n = 5): (2 0F1 neg)
- Parasitemia (%) at day 4 [3, 6]: 0.00 (0.00 − 0.00) %
- Parasitemia (%) at day 10 [3, 6]: 0.003 (0.000 − 0.012) %
- Number of OF1 negative (neg) at day 10 ([3]; 50 mg/kg/d oral, 3 days of treatment, n = 6): (5 0F1 neg)
- Parasitemia (%) at day 4 [3, 7]: 0.00 (0.00 − 0.00) %
- Parasitemia (%) at day 10 [3, 7]: 0.00 (0.00 − 0.00) %
- Number of OF1 negative (neg) at day 10 ([3]; 50 mg/kg/d oral, 4 days of treatment, n = 6): (6 0F1 neg)
- Parasitemia (%) at day 4 ([3]; 50 mg/kg/d oral, days 0-3): 0.00 (0.00 − 0.00) %
- Parasitemia (%) at day 10 ([3]; 50 mg/kg/d oral, days 0-3): 0.00 (0.00 − 0.00) %
- Parasitemia (%) at day 4 ([3]; 100 mg/kg/d oral, days 0-3): 0.00 (0.00 − 0.00) %
- Parasitemia (%) at day 10 ([3]; 100 mg/kg/d oral, days 0-3): 0.00 (0.00 − 0.00) %
- Development of erythrocytic forms of P. berghei [3, 8]: completely and permanently inhibited
- Indications of toxicity [3, 8]: no observed indications of any toxicity

Compound: COc1cc(O)c(-c2c(C)cc(OC)c3c(OC)cccc23)c2c1[C@H](C)N[C@@H](C)C2 [Hamatine]
- IC50 P. falciparum NF54 strain [1]: 3.338 µg/mL (≈ 8.19 µM)
- IC50 P. berghei, Anka (P. berghei (Anka)): 5.565 µg/mL (≈ 13.7 µM)

Compound: COc1cc(C)cc2c(-c3c(O)cc(O)c4c3C[C@@H](C)N[C@@H]4C)cc(-c3cc(-c4c(O)cc(O)c5c4C[C@@H](C)N[C@@H]5C)c4cc(C)cc(OC)c4c3O)c(O)c12 [Michellamine A]
- IC50 P. falciparum NF54 strain [1]: 46.957 µg/mL (≈ 62 µM)
- IC50 P. berghei, Anka (P. berghei (Anka)): >50 µg/mL

Compound: COc1cccc2c(-c3ccc4c(c3O)C(C)N(C)C(C)C4)c(C)cc(OC)c12 (stereo not shown) [N-methyl-dioncophylline A]
- IC50 P. falciparum NF54 strain [1]: 13.637 µg/mL (≈ 34.8 µM)
- IC50 P. falciparum, K1 strain [2]: 5.749 µg/mL (≈ 14.7 µM)
- IC50 P. berghei, Anka (P. berghei (Anka)): 9.207 µg/mL (≈ 23.5 µM)

Compound: Ancistrobrevine D
- IC50 P. falciparum NF54 strain [1]: 12.222 µg/mL
- IC50 P. falciparum, K1 strain [2]: 10.440 µg/mL
- IC50 P. berghei, Anka (P. berghei (Anka)): 6.069 µg/mL

Compound: Dioncolactone A
- IC50 P. falciparum NF54 strain [1]: 1.337 µg/mL
- IC50 P. berghei, Anka (P. berghei (Anka)): 0.598 µg/mL

Compound: Dioncophylleine A
- IC50 P. falciparum NF54 strain [1]: 21.295 µg/mL

Compound: Michellamine B
- IC50 P. falciparum NF54 strain [1]: 20.185 µg/mL
- IC50 P. berghei, Anka (P. berghei (Anka)): >50 µg/mL

Compound: N-formyl-O,O-dimethyl-dioncophylline C
- IC50 P. falciparum NF54 strain [1]: >50 µg/mL

Compound: N-formyl-ancistrocladine
- IC50 P. falciparum NF54 strain [1]: 8.129 µg/mL

Compound: N-formyl-dioncophylline C
- IC50 P. falciparum NF54 strain [1]: 3.132 µg/mL

Compound: N-methyl-ancistrocladine
- IC50 P. falciparum NF54 strain [1]: 0.491 µg/mL
